Results as given in the supplement of paper PMC11451515.

Assays:
Details in all cases: 48 h
SEM cells [1] = assay: cell viability relative to DMSO control; higher = less cytotoxic
In short: (§1)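 Leukemia cells (NOMO1 or SEM, 500 cells/well; P12-Ichikawa, 1000 cells/well) were seeded in 5 μl in 1536-well plates after at least four passages of adaptation to each medium. They received library compounds in DMSO by pin dosing, 11 threefold points from 47 μM to 0.79 nM. Luminescence with CellTiter-Glo One was read after 48 h at 37°C. Viability is stated per plate relative to DMSO wells, with cell-free wells as background.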

P12-Ichikawa [2] = assay: AUC of viability dose-response curve (% viability x log10 dose units); higher = less sensitive
In short: (§2)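 Library compounds in DMSO were applied for 48 h at 37°C at 11 threefold doses (47 μM to 0.79 nM) to medium-adapted leukemia cells in 1536-well plates holding 500 or 1000 cells/well. Luminescence from CellTiter-Glo One was normalised plate by plate against DMSO and cell-free wells. Area under the curve came from trapezoidal integration of a log-logistic fit, after scaling curves that rose above full viability and discarding those that failed quality control. The fit had four parameters and used log10 doses.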

SEM cells [3] = assay: as above
In short: as §2

NOMO1 [4] = assay: as above
In short: as §2

P12-Ichikawa [5] = assay: cell viability relative to DMSO control; higher = less cytotoxic
In short: as §1

NOMO1 [6] = assay: as above
In short: as §1

OC(CN1CCC(Cc2ccc(F)cc2)CC1)c1ccc(Cl)cc1 (configuration not stated)
cell viability [%], SEM cells [1]
Details | HPLM + 10% dialyzed FBS | RPMI 5 mM glucose + 10% dialyzed FBS
0.000781 µM | 106 | 116
0.00234 µM | 118 | 125
0.00702 µM | 108 | 115
0.0211 µM | 115 | 129
0.0632 µM | 116 | 126
0.19 µM | 118 | 139
0.569 µM | 117 | 140
1.71 µM | 122 | 136
5.12 µM | 124 | 125
15.4 µM | 130 | 128
46.1 µM | 129 | 136

AUC of viability dose-response curve
Details | NOMO1 [4] | P12-Ichikawa [2] | SEM cells [3]
HPLM + 10% dialyzed FBS | 456 | 449 | 440
RPMI 5 mM glucose + 10% FBS | 455 | 451 | 451
RPMI 5 mM glucose + 10% dialyzed FBS | 448 | 451 | 461

CN1CCN(c2ccc(C(=O)Nc3n[nH]c4ccc(Cc5cc(F)cc(F)c5)cc34)c(NC3CCOCC3)c2)CC1
AUC of viability dose-response curve
Details | HPLM + 10% dialyzed FBS | RPMI 5 mM glucose + 10% FBS | RPMI 5 mM glucose + 10% dialyzed FBS
P12-Ichikawa [2] | 440 | 440 | 404
SEM cells [3] | 341 | 352 | 354

OC[C@H]1OCC(O1)[N@@]2C=CC(N)=NC2=O (some centres not stated)
cell viability [%]
Details | NOMO1 [6] | P12-Ichikawa [5] | SEM cells [1]
HPLM + 10% dialyzed FBS, 0.000781 µM | 115 | 121 | 108
HPLM + 10% dialyzed FBS, 0.00234 µM | 127 | 118 | 81.3
HPLM + 10% dialyzed FBS, 0.00702 µM | 101 | 113 | 90.7
HPLM + 10% dialyzed FBS, 0.0211 µM | 105 | 121 | 106
HPLM + 10% dialyzed FBS, 0.0632 µM | 117 | 112 | 115
HPLM + 10% dialyzed FBS, 0.19 µM | 113 | 118 | 103
HPLM + 10% dialyzed FBS, 0.569 µM | 131 | 117 | 107
HPLM + 10% dialyzed FBS, 1.71 µM | 86.7 | 107 | 99.3
HPLM + 10% dialyzed FBS, 5.12 µM | 121 | 115 | 96.3
HPLM + 10% dialyzed FBS, 15.4 µM | 126 | 108 | 102
HPLM + 10% dialyzed FBS, 46.1 µM | 94.8 | 115 | 96.6
RPMI 5 mM glucose + 10% FBS, 0.000781 µM | 114 | 108 | 73.1
RPMI 5 mM glucose + 10% FBS, 0.00234 µM | 123 | 125 | 62.4
RPMI 5 mM glucose + 10% FBS, 0.00702 µM | 118 | 117 | 77.8
RPMI 5 mM glucose + 10% FBS, 0.0211 µM | 116 | 118 | 77.5
RPMI 5 mM glucose + 10% FBS, 0.0632 µM | 114 | 118 | 78
RPMI 5 mM glucose + 10% FBS, 0.19 µM | 127 | 117 | 84.2
RPMI 5 mM glucose + 10% FBS, 0.569 µM | 118 | 118 | 80
RPMI 5 mM glucose + 10% FBS, 1.71 µM | 113 | 107 | 64.4
RPMI 5 mM glucose + 10% FBS, 5.12 µM | 122 | 104 | 70.7
RPMI 5 mM glucose + 10% FBS, 15.4 µM | 108 | 101 | 63.8
RPMI 5 mM glucose + 10% FBS, 46.1 µM | 108 | 103 | 56.3
RPMI 5 mM glucose + 10% dialyzed FBS, 0.000781 µM | 103 | 116 | 96.7
RPMI 5 mM glucose + 10% dialyzed FBS, 0.00234 µM | 133 | 121 | 95.8
RPMI 5 mM glucose + 10% dialyzed FBS, 0.00702 µM | 112 | 115 | 96.3
RPMI 5 mM glucose + 10% dialyzed FBS, 0.0211 µM | 109 | 109 | 106
RPMI 5 mM glucose + 10% dialyzed FBS, 0.0632 µM | 125 | 114 | 113
RPMI 5 mM glucose + 10% dialyzed FBS, 0.19 µM | 111 | 113 | 110
RPMI 5 mM glucose + 10% dialyzed FBS, 0.569 µM | 117 | 109 | 114
RPMI 5 mM glucose + 10% dialyzed FBS, 1.71 µM | 113 | 106 | 103
RPMI 5 mM glucose + 10% dialyzed FBS, 5.12 µM | 120 | 105 | 106
RPMI 5 mM glucose + 10% dialyzed FBS, 15.4 µM | 113 | 104 | 101
RPMI 5 mM glucose + 10% dialyzed FBS, 46.1 µM | 113 | 105 | 88.8

AUC of viability dose-response curve
Details | HPLM + 10% dialyzed FBS | RPMI 5 mM glucose + 10% FBS | RPMI 5 mM glucose + 10% dialyzed FBS
NOMO1 [4] | 465 | 463 | 475
P12-Ichikawa [2] | 458 | 458 | 446

COc1cc(F)c(C(C)C)cc1-c1ccc(C(F)(F)F)cc1CN1C(=O)O[C@H](c2cc(C(F)(F)F)cc(C(F)(F)F)c2)[C@@H]1C
AUC of viability dose-response curve
Details | NOMO1 [4] | P12-Ichikawa [2] | SEM cells [3]
HPLM + 10% dialyzed FBS | 375 | 438 | 457
RPMI 5 mM glucose + 10% FBS | 438 | 451 | 445
RPMI 5 mM glucose + 10% dialyzed FBS | 444 | 459 | 441

CN(C)CCc1ccc(O)cc1
SEM cells [1], HPLM + 10% dialyzed FBS
Details | cell viability [%]
0.000781 µM | 114
0.00234 µM | 120
0.00702 µM | 134
0.0211 µM | 130
0.0632 µM | 137
0.19 µM | 135
0.569 µM | 116
1.71 µM | 140
5.12 µM | 113
15.4 µM | 135
46.1 µM | 110

AUC of viability dose-response curve
Details | NOMO1 [4] | P12-Ichikawa [2] | SEM cells [3]
HPLM + 10% dialyzed FBS | 454 | 448 | 471
RPMI 5 mM glucose + 10% FBS | 460 | 446 | 455
RPMI 5 mM glucose + 10% dialyzed FBS | 461 | 450 | 471

CCN1CCC(n2cc(CNc3cc(Cl)c4ncc(C#N)c(Nc5ccc(F)c(Cl)c5)c4c3)nn2)CC1
AUC of viability dose-response curve
Details | NOMO1 [4] | P12-Ichikawa [2] | SEM cells [3]
HPLM + 10% dialyzed FBS | 433 | 377 | 433
RPMI 5 mM glucose + 10% FBS | 445 | 432 | 367
RPMI 5 mM glucose + 10% dialyzed FBS | 447 | 426 | 400

CSCC[C@@H](NC(=O)[C@@H](Cc1ccccc1)NC(=O)CNC(=O)CNC(=O)[C@@H](N)Cc1ccc(O)cc1)C(=O)O
cell viability [%]
Details | NOMO1 [6] | P12-Ichikawa [5] | SEM cells [1]
HPLM + 10% dialyzed FBS, 0.000781 µM | 77.4 | 84.4 | 73.5
HPLM + 10% dialyzed FBS, 0.00234 µM | 90.8 | 96.7 | 44.7
HPLM + 10% dialyzed FBS, 0.00702 µM | 110 | 105 | 93
HPLM + 10% dialyzed FBS, 0.0211 µM | 28.1 | 11 | 22
HPLM + 10% dialyzed FBS, 0.0632 µM | 110 | 113 | 106
HPLM + 10% dialyzed FBS, 0.19 µM | 121 | 102 | 103
HPLM + 10% dialyzed FBS, 0.569 µM | 121 | 112 | 94.9
HPLM + 10% dialyzed FBS, 1.71 µM | 104 | 104 | 102
HPLM + 10% dialyzed FBS, 5.12 µM | 92 | 105 | 98.9
HPLM + 10% dialyzed FBS, 15.4 µM | 100 | 120 | 91.6
HPLM + 10% dialyzed FBS, 46.1 µM | 109 | 115 | 99.6
RPMI 5 mM glucose + 10% FBS, 0.000781 µM | 91.8 | 82.2 | 72.6
RPMI 5 mM glucose + 10% FBS, 0.00234 µM | 89.3 | 91.9 | 25.7
RPMI 5 mM glucose + 10% FBS, 0.00702 µM | 105 | 101 | 80.9
RPMI 5 mM glucose + 10% FBS, 0.0211 µM | 22.1 | 12.6 | 15.5
RPMI 5 mM glucose + 10% FBS, 0.0632 µM | 110 | 107 | 103
RPMI 5 mM glucose + 10% FBS, 0.19 µM | 103 | 105 | 104
RPMI 5 mM glucose + 10% FBS, 0.569 µM | 102 | 104 | 90.5
RPMI 5 mM glucose + 10% FBS, 1.71 µM | 100 | 111 | 107
RPMI 5 mM glucose + 10% FBS, 5.12 µM | 95.4 | 99.8 | 96.6
RPMI 5 mM glucose + 10% FBS, 15.4 µM | 101 | 101 | 99.9
RPMI 5 mM glucose + 10% FBS, 46.1 µM | 97.9 | 102 | 120
RPMI 5 mM glucose + 10% dialyzed FBS, 0.000781 µM | 87.1 | 85.1 | 81.9
RPMI 5 mM glucose + 10% dialyzed FBS, 0.00234 µM | 97.4 | 88.1 | 38.3
RPMI 5 mM glucose + 10% dialyzed FBS, 0.00702 µM | 94.6 | 94.1 | 102
RPMI 5 mM glucose + 10% dialyzed FBS, 0.0211 µM | 34.8 | 24.3 | 20.9
RPMI 5 mM glucose + 10% dialyzed FBS, 0.0632 µM | 88.3 | 101 | 95.6
RPMI 5 mM glucose + 10% dialyzed FBS, 0.19 µM | 103 | 98.7 | 103
RPMI 5 mM glucose + 10% dialyzed FBS, 0.569 µM | 97.6 | 104 | 92.3
RPMI 5 mM glucose + 10% dialyzed FBS, 1.71 µM | 111 | 101 | 99.7
RPMI 5 mM glucose + 10% dialyzed FBS, 5.12 µM | 99.9 | 102 | 106
RPMI 5 mM glucose + 10% dialyzed FBS, 15.4 µM | 113 | 97.9 | 103
RPMI 5 mM glucose + 10% dialyzed FBS, 46.1 µM | 109 | 109 | 99.8

SEM cells [3]
Details | AUC of viability dose-response curve
HPLM + 10% dialyzed FBS | 406
RPMI 5 mM glucose + 10% FBS | 389
RPMI 5 mM glucose + 10% dialyzed FBS | 409
